Reference: patent publication US20040096899A1, “Immunoassay method for membrane-bound matrix metalloprotease” (priority 2000, published 2004)

Legend:
[1] = target: T1, MT1-MMP sandwich EIA (solid-phase antibody 222-2D12, labeled antibody 222-1D8) (Homo sapiens, UniProt P50281); assay: Specificity test: cross reactivity on MT1-MMP sandwich EIA; type: binding; conditions: concentration 1 μg/mL; blank 0.027
T1 construct: 488 amino acid residues of Δ MT1-MMP (G^48 to G^53) which lacks the signal peptide and part of the propeptide region; made in house; host or cells: E. coli
Experimental: Monoclonal antibodies (e.g., 333-2D12 (IgG)) were dissolved in 0.1 M phosphate buffer, pH 7.0 to a concentration of 25 μg/mL. The monoclonal antibody solution was added to each well of a 96-well microwell (Maxisorp; Nunc-Immuno Module) at 100 μL per well and allowed to stand at 4° C. for 24 hrs. […] The solid-phase antibodies were preserved at 4° C.
Standard antigens or samples to be assayed were dispensed into a 96-well vinyl plate at 25 μL each. To each well was added a dilution buffer in aliquots of 100 μL, followed by mixing. An aliquot (100 μL) of the resultant mixture was taken out, dispensed into an antibody-solid phased plate from which a blocking solution was removed by washing. The plate was then allowed to stand at 4° C. for 16 hours.
[…] antibody 222-1D8 (Fab′-HRP) was diluted with a blocking solution to a concentration of 0.4 μg/mL. The reaction solution was removed from the antibody-solid phased plate where the primary reaction was completed. The plate was washed with a washing liquid three times and an aliquot (100 μL) of the labeled antibody solution was added to each well. The plate was allowed to stand at room temperature for 1 hour.
After completion of the reaction, the labeled antibody solution was removed. The plate was then washed with a washing liquid three times, and a TMB solution (CALBIOCHEM) was added to each well at 100 μL. The mixture was allowed to react at room temperature for 20 minute. The reaction was stopped with the addition of 2 N sulfuric acid at 100 μL per well. The reaction mixture was measured for A450 with a microplate reader (MPR-A4; Tosoh).
Each of MMP-1, -2, -3, -4, -7, -8, -9, -13, -19 and -20 was prepared to give a concentration of 1 μg/mL, and subjected to MT1-MMP sandwich EIA. A450 was measured. When MT1-MMP was subjected to sandwich EIA at 0.16 μg/mL, the absorbance was 2.206. However, when the above MMPs were subjected, their absorbances were only an extent of 0.024 to 0.071. Accordingly, it has been verified that MT1-MMP sandwich EIA is specifically reactive with MT1-MMP.

[2] = test system: SSC-25 (lingual squamous cell carcinoma); assay: MT1-MMP sandwich EIA of cultured cell line with Con A; type: cell-based, Human; conditions: SSC-25, Con A-containing serum-free medium 48 hours
Experimental: (§1) Searches for Human MT1-MMP-producing culture cell lines were carried out by means of MT1-MMP sandwich EIA. With regard to the cell lines, there were used Burkitt's lymphoma (Daudi, Namalwa, Raji), acute lymphoblastic leukemia (T-cells) (MOLT-4), chronic myelogenous leukemia (K-562), promyelocytic leukemia (HL-60), fibrosarcoma (HT-1080), breast cancer (MDA-MB-231, SK-BR-3, MCF 7), lung cancer (A 549), rectal adenocarcinoma (SW 837), osteosarcoma ([…]), lingual squamous cell carcinoma (SSC-25), uterocervical cancer (HeLa), cervical epidermoid cancer (CaSki), prostatic cancer (PC-3) and malignant melanoma (A-375) cells. Each of the cancer cell lines was incubated in a plate of 10 cm diameter until being confluent, the medium was exchanged with serum-free medium or Con A-containing serum-free medium and, after 48 hours, the culture supernatant and the cells were recovered. The cells were ultrasonically disrupted in 0.5 mL of dilution buffer and centrifuged. The resulting supernatant was subjected to EIA as a cell extract fraction. The culture supernatant was subjected to EIA as it was.

[3] = test system: SW 837 (rectal adenocarcinoma); assay: as above; type: cell-based, Human; conditions: SW 837, Con A-containing serum-free medium 48 hours
Experimental: as §1

MG-63 (osteosarcoma) = assay: as above; type: cell-based, Human; conditions: MG-63, Con A-containing serum-free medium 48 hours
Experimental: as §1

HT-1080 (fibrosarcoma) = assay: as above; type: cell-based, Human; conditions: HT-1080, Con A-containing serum-free medium 48 hours
Experimental: as §1

[4] = test system: MDA-MB-231 (breast cancer); assay: as above; type: cell-based, Human; conditions: MDA-MB-231, Con A-containing serum-free medium 48 hours
Experimental: as §1

[5] = test system: CaSki (cervical epidermoid cancer); assay: as above; type: cell-based, Human; conditions: Con A-containing serum-free medium 48 hours
Experimental: as §1

“MMP-3: matrix metalloproteinase subjected to MT1-MMP sandwich EIA for cross reactivity” was tested, and the A450 [1] was 0.027.
“MMP-7: matrix metalloproteinase subjected to MT1-MMP sandwich EIA for cross reactivity” gave an A450 [1] of 0.026.
Substance “MMP-8: matrix metalloproteinase subjected to MT1-MMP sandwich EIA for cross reactivity” has an A450 [1] of 0.028.
concanavalin A [Con A] was tested, and the “MT1-MMP in Culture Supernatant, +Con A” value ([2]; −Con A 2.8) was 43.1, the “MT1-MMP in Cell Extract Fraction, +Con A” value ([2]; −Con A 5.9) was 19.1 and the “MT1-MMP in Culture Supernatant, +Con A” value ([3]; −Con A 1.8) was 14.2. The “MT1-MMP in Cell Extract Fraction, +Con A” value ([3]; −Con A 21.5) was 30.7, the “MT1-MMP in Cell Extract Fraction, +Con A” value (MG-63 (osteosarcoma); −Con A 0.7) was 0.0 and the “MT1-MMP in Culture Supernatant, +Con A” value (MG-63 (osteosarcoma); −Con A 1.6) was 20.3. For the same substance, the “MT1-MMP in Culture Supernatant, +Con A” value (HT-1080 (fibrosarcoma); −Con A 10.1) was 80.3, the “MT1-MMP in Cell Extract Fraction, +Con A” value (HT-1080 (fibrosarcoma); −Con A 45.9) was 42.6 and the “MT1-MMP in Culture Supernatant, +Con A” value ([4]; −Con A 7.6) was 48.8. For the same substance, the “MT1-MMP in Cell Extract Fraction, +Con A” value ([4]; −Con A 42.8) was 85.0, the “MT1-MMP in Culture Supernatant, +Con A” value ([5]; −Con A 1.7) was 25.1 and the “MT1-MMP in Cell Extract Fraction, +Con A” value ([5]; −Con A 9.0) was 9.5.
